Read-outs that look alike come from different tables or passages of the source.
What was measured:
ER = ER (Homo sapiens (Human), UniProt P03372); assay: In-cell western blot analysis of ER for "B" compounds; assay type: cell-based; settings: 16 hours, read-out: ICW DC50
How it was run: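 ER levels given as a percentage of untreated/DMSO-treated wells (100%). Detection used primary antibodies for 2 h at room temperature followed by 680 and 800 nm fluorescent secondaries at 1:1000 for 1 h, read by LI-COR imaging.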

[1] = Cell growth assay (WST-8) for "B" compounds; assay type: cell-based; settings: T47D, read-out: Cell growth Inhibition in T47D cell line IC50
How it was run: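 Four-day compound exposure of cells plated at 1500/well the day before. Read-out is WST-8 (10%, 2.5 h, 37 °C) absorbance at 450 nm, normalized to vehicle control over three independent repeats.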

Chain of ER (P03372 whole entry): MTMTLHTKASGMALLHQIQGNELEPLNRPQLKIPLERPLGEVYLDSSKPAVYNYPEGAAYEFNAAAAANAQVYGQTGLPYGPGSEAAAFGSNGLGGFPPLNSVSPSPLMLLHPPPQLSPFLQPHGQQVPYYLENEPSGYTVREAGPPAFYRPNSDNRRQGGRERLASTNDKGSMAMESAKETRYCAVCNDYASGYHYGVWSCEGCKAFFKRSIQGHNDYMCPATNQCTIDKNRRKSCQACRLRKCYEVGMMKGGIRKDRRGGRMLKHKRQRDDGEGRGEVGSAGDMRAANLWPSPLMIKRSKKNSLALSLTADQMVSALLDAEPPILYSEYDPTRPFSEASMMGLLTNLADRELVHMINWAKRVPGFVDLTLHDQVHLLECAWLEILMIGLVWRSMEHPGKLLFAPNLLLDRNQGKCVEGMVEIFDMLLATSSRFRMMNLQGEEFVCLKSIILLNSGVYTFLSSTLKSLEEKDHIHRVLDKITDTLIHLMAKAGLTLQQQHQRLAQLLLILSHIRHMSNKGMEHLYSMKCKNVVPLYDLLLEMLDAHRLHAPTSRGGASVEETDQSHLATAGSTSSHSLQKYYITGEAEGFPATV

Row | SMILES | DC50 (ER) | IC50 ([1]; T47D cell line) | IC50 [1]
1 | O=C1CCC(N2Cc3c(ccc4c3OCCC43CCN(CC4CCN(c5ccc([C@@H]6c7ccc(O)cc7CC[C@@H]6c6ccccc6)cc5)CC4)CC3)C2=O)C(=O)N1 (stereo partly drawn) [Compound B165, 3-(1-((1-(4-((1R,2S)-6-hydroxy-2-phenyl-1,2,3,4-tetrahydronaphthalen-1-yl)phenyl)piperidin-4-yl)methyl)-7′-oxo-2′,3′,7′,9′-tetrahydro-8′H-spiro[piperidine-4,4′-pyrano[2,3-e]isoindol]-8′-yl)piperidine-2,6-dione] | > 0.1 µM | – | < 0.001 µM
2 | O=C1CCC(N2Cc3cc4c(cc3C2=O)CN(CC(=O)N2CCC3(CC2)CCN(c2ccc([C@@H]5c6ccc(O)cc6CC[C@@H]5c5ccccc5)cc2)CC3)C4)C(=O)N1 (stereo partly drawn) [Compound B166, 3-(6-(2-(9-(4-((1R,2S)-6-hydroxy-2-phenyl-1,2,3,4-tetrahydronaphthalen-1-yl)phenyl)-3,9-diazaspiro[5.5]undecan-3-yl)-2-oxoethyl)-1-oxo-3,5,6,7-tetrahydropyrrolo[3,4-f]isoindol-2(1H)-yl)piperidine-2,6-dione] | < 0.01 µM | < 0.001 µM | –
3 | O=C1CCC(N2Cc3cc4c(cc3C2=O)OC[C@@H]2CN(C3CN(C5CCN(c6ccc([C@@H]7c8ccc(O)cc8CC[C@@H]7c7ccccc7)cc6)CC5)C3)CCN42)C(=O)N1 (stereo partly drawn) [Compound B167, 3-((S)-3-(1-(1-(4-((1R,2S)-6-hydroxy-2-phenyl-1,2,3,4-tetrahydronaphthalen-1-yl)phenyl)piperidin-4-yl)azetidin-3-yl)-8-oxo-1,2,3,4,4a,5,8,10-octahydro-9H-pyrazino[1′,2′:4,5][1,4]oxazino[2,3-f]isoindol-9-yl)piperidine-2,6-dione] | < 0.01 µM | < 0.001 µM | –
4 | O=C1CCC(N2Cc3c(ccc4c3OCC43CCN(C(=O)CN4CC5(CC(Nc6ccc([C@@H]7c8ccc(O)cc8CC[C@@H]7c7ccccc7)cc6)C5)C4)CC3)C2=O)C(=O)N1 (stereo partly drawn) [Compound B168, 3-(1′-(2-(6-((4-((1R,2S)-6-hydroxy-2-phenyl-1,2,3,4-tetrahydronaphthalen-1-yl)phenyl)amino)-2-azaspiro[3.3]heptan-2-yl)acetyl)-6-oxo-6,8-dihydro-2H,7H-spiro[furo[2,3-e]isoindole-3,4′-piperidin]-7-yl)piperidine-2,6-dione] | < 0.01 µM | < 0.001 µM | –
5 | O=C1CCC(N2Cc3c(ccc4c3OCC43CCN(CC(=O)N4CC5(CC(Nc6ccc([C@@H]7c8ccc(O)cc8CC[C@@H]7c7ccccc7)cc6)C5)C4)CC3)C2=O)C(=O)N1 (stereo partly drawn) [Compound B170, 3-(1′-(2-(6-((4-((1R,2S)-6-hydroxy-2-phenyl-1,2,3,4-tetrahydronaphthalen-1-yl)phenyl)amino)-2-azaspiro[3.3]heptan-2-yl)-2-oxoethyl)-6-oxo-6,8-dihydro-2H,7H-spiro[furo[2,3-e]isoindole-3,4′-piperidin]-7-yl)piperidine-2,6-dione] | < 0.01 µM | – | < 0.001 µM
6 | O=C1CCC(N2Cc3c(ccc4c3OCC43CCN(CC(=O)N4CC5(CCN(c6ccc([C@@H]7c8ccc(O)cc8CC[C@@H]7c7ccccc7)cc6)CC5)C4)CC3)C2=O)C(=O)N1 (stereo partly drawn) [Compound B171, 3-(1′-(2-(7-(4-((1R,2S)-6-hydroxy-2-phenyl-1,2,3,4-tetrahydronaphthalen-1-yl)phenyl)-2,7-diazaspiro[3.5]nonan-2-yl)-2-oxoethyl)-6-oxo-6,8-dihydro-2H,7H-spiro[furo[2,3-e]isoindole-3,4′-piperidin]-7-yl)piperidine-2,6-dione] | < 0.01 µM | – | < 0.001 µM
7 | O=C1CCC(N2Cc3cc4c(cc3C2=O)OC[C@@H]2CN(CC3CC5(CCN(c6ccc([C@@H]7c8ccc(O)cc8CC[C@@H]7c7ccccc7)cc6)CC5)CO3)CCN42)C(=O)N1 (stereo partly drawn) [Compound B173, 3-((4aS)-3-((8-(4-((1R,2S)-6-hydroxy-2-phenyl-1,2,3,4-tetrahydronaphthalen-1-yl)phenyl)-2-oxa-8-azaspiro[4.5]decan-3-yl)methyl)-8-oxo-1,2,3,4,4a,5,8,10-octahydro-9H-pyrazino[1′,2′: 4,5][1,4]oxazino[2,3-f]isoindol-9-yl)piperidine-2,6-dione] | > 0.1 µM | < 0.001 µM | –
8 | O=C1CCC(N2Cc3c(ccc4c3OCC43CCN(CC4CC5(CCN(c6ccc([C@@H]7c8ccc(O)cc8CC[C@@H]7c7ccccc7)cc6)CC5)CO4)CC3)C2=O)C(=O)N1 (stereo partly drawn) [Compound B175, 3-(1′-((8-(4-((1R,2S)-6-hydroxy-2-phenyl-1,2,3,4-tetrahydronaphthalen-1-yl)phenyl)-2-oxa-8-azaspiro[4.5]decan-3-yl)methyl)-6-oxo-6,8-dihydro-2H,7H-spiro[furo[2,3-e]isoindole-3,4′-piperidin]-7-yl)piperidine-2,6-dione] | 0.01 to 0.1 µM | – | < 0.001 µM
9 | O=C1CCC(N2Cc3cc4c(cc3C2=O)OC[C@@H]2CN(CC3CCC5(CCN(c6ccc([C@@H]7c8ccc(O)cc8CC[C@@H]7c7ccccc7)cc6)CC5)O3)CCN42)C(=O)N1 (stereo partly drawn) [Compound B177, 3-((4aS)-3-((8-(4-((1R,2S)-6-hydroxy-2-phenyl-1,2,3,4-tetrahydronaphthalen-1-yl)phenyl)-1-oxa-8-azaspiro[4.5]decan-2-yl)methyl)-8-oxo-1,2,3,4,4a,5,8,10-octahydro-9H-pyrazino[1′,2′: 4,5][1,4]oxazino[2,3-f]isoindol-9-yl)piperidine-2,6-dione] | > 0.1 µM | 0.001 to 0.01 µM | –
10 | O=C1CCC(N2Cc3c(ccc4c3OCC43CCN(CC4CCC5(CCN(c6ccc([C@@H]7c8ccc(O)cc8CC[C@@H]7c7ccccc7)cc6)CC5)O4)CC3)C2=O)C(=O)N1 (stereo partly drawn) [Compound B178, 3-(1′-((8-(4-((1R,2S)-6-hydroxy-2-phenyl-1,2,3,4-tetrahydronaphthalen-1-yl)phenyl)-1-oxa-8-azaspiro[4.5]decan-2-yl)methyl)-6-oxo-6,8-dihydro-2H,7H-spiro[furo[2,3-e]isoindole-3,4′-piperidin]-7-yl)piperidine-2,6-dione] | > 0.1 µM | – | < 0.001 µM
11 | COc1c2c(cc3c1CN(C1CCC(=O)NC1=O)C3=O)CN(CC(=O)N1CCC3(CC1)CCN(c1ccc([C@@H]4c5ccc(O)cc5CC[C@@H]4c4ccccc4)cc1)CC3)C2 (stereo partly drawn) [Compound B203, 3-(6-(2-(9-(4-((1R,2S)-6-hydroxy-2-phenyl-1,2,3,4-tetrahydronaphthalen-1-yl)phenyl)-3,9-diazaspiro[5.5]undecan-3-yl)-2-oxoethyl)-4-methoxy-1-oxo-3,5,6,7-tetrahydropyrrolo[3,4-f]isoindol-2(1H)-yl)piperidine-2,6-dione] | < 0.01 µM | < 0.001 µM | –

Continued, in another order:

Row | DC50 (ER) | SMILES | IC50 ([1]; T47D cell line) | IC50 [1]
12 | 0.01 to 0.1 µM | O=C1CCC(N2Cc3cc4c(cc3C2=O)OC[C@@H]2CN(C(=O)CN3CCC5(CC3)CCN(c3ncc([C@@H]6c7ccc(O)cc7CC[C@@H]6c6ccccc6)cn3)CC5)CCN42)C(=O)N1 (stereo partly drawn) [Compound B159, 3-((S)-3-(2-(9-(5-((1S,2S)-6-hydroxy-2-phenyl-1,2,3,4-tetrahydronaphthalen-1-yl)pyrimidin-2-yl)-3,9-diazaspiro[5.5]undecan-3-yl)acetyl)-8-oxo-1,2,3,4,4a,5,8,10-octahydro-9H-pyrazino[1′,2′:4,5][1,4]oxazino[2,3-f]isoindol-9-yl)piperidine-2,6-dione] | 0.001 to 0.01 µM | –
13 | < 0.01 µM | O=C1CCC(N2C(=O)c3cc4c(cc3C2=O)CN(CC(=O)N2CC3(CC(Nc5ccc([C@@H]6c7ccc(O)cc7CC[C@@H]6c6ccccc6)cc5)C3)C2)C4)C(=O)N1 (stereo partly drawn) [Compound B163, 2-(2,6-dioxopiperidin-3-yl)-6-(2-(6-((4-((1R,2S)-6-hydroxy-2-phenyl-1,2,3,4-tetrahydronaphthalen-1-yl)phenyl)amino)-2-azaspiro[3.3]heptan-2-yl)-2-oxoethyl)-6,7-dihydropyrrolo[3,4-f]isoindole-1,3(2H,5H)-dione] | 0.001 to 0.01 µM | –
14 | < 0.01 µM | O=C1CCC(N2Cc3cc4c(cc3C2=O)OC[C@@H]2CN(C3CN(CC5CCN(c6ccc([C@@H]7c8ccc(O)cc8CC[C@@H]7c7ccccc7)cc6)CC5)C3)CCN42)C(=O)N1 (stereo partly drawn) [Compound B164, 3-((S)-3-(1-((1-(4-((1R,2S)-6-hydroxy-2-phenyl-1,2,3,4-tetrahydronaphthalen-1-yl)phenyl)piperidin-4-yl)methyl)azetidin-3-yl)-8-oxo-1,2,3,4,4a,5,8,10-octahydro-9H-pyrazino[1′,2′:4,5][1,4]oxazino[2,3-f]isoindol-9-yl)piperidine-2,6-dione] | 0.001 to 0.01 µM | –
15 | < 0.01 µM | O=C1CCC(N2Cc3cc4c(cc3C2=O)OC[C@@H]2CN(C(=O)CN3CC(Nc5ccc([C@@H]6c7ccc(O)cc7CC[C@@H]6c6ccccc6)cc5)C3)CCN42)C(=O)N1 (stereo partly drawn) [Compound B204, 3-((S)-3-(2-(3-((4-((1R,2S)-6-hydroxy-2-phenyl-1,2,3,4-tetrahydronaphthalen-1-yl)phenyl)amino)azetidin-1-yl)acetyl)-8-oxo-1,2,3,4,4a,5,8,10-octahydro-9H-pyrazino[1′,2′:4,5][1,4]oxazino[2,3-f]isoindol-9-yl)piperidine-2,6-dione] | < 0.001 µM | –
16 | < 0.01 µM | O=C1CCC(N2Cc3cc4c(cc3C2=O)OC[C@@H]2CN(C(=O)CN3CC5(C3)CN(c3ccc([C@@H]6c7ccc(O)cc7CC[C@@H]6c6ccccc6)cc3)C5)CCN42)C(=O)N1 (stereo partly drawn) [Compound B205, 3-((S)-3-(2-(6-(4-((1R,2S)-6-hydroxy-2-phenyl-1,2,3,4-tctrahydronaphthalen-1-yl)phenyl)-2,6-diazaspiro[3.3]heptan-2-yl)acetyl)-8-oxo-1,2,3,4,4a,5,8,10-octahydro-9H-pyrazino[1′,2′:4,5][1,4]oxazino[2,3-f]isoindol-9-yl)piperidine-2,6-dione] | 0.001 to 0.01 µM | –
